# How the values were obtained:
# Assay type in all cases: cell-based
# [1] = system: vitamin D receptor expression in human skeletal muscle cells (hSkMC1); test: Vitamin D receptor expression by flow cytometry, hSkMC1 cells; conditions: compared with hSkMC2, data not shown
# Method: (§1) Two different batches of human skeletal muscle cells or satellite cells (hSkMC1—obtained from a healthy person—and hSkMC2—obtained from a healthy person) were obtained from PromoCell (Heidelberg, Germany) and cultured in flasks according to the instructions by the provider. Cells were harvested and stored in liquid nitrogen until used for the experiments. Cells were not used at passage number higher than 15. For the experiments cells were cultured at 37° C. and 5% CO2 at a density of 3,500-7,000 cells/cm2 in basal medium (PromoCell) plus the addition of 5% charcoal (Sigma-Aldrich) treated fetal bovine serum (FBS) (PAA, Germany) using 24-well plates (Costar) til about 80% confluency.
# (§2) Androgen and vitamin D receptor staining protocols with the subsequent visualization by flow cytometry methods were derived from the publications of Krishan et al. (2000) and Folgueira et al. (2000). […] All solutions further contained Tween 20 (Sigma Aldrich) as detergent to maintain the permeabilized status of the cells throughout the entire staining experiment. The staining in non-stimulated and stimulated cells were compared by determining the intensity of the staining in the cells as well as the staining in the % of cells. […] The increase in the % of stained cells beyond the setpoint of the marker (at 1% for background staining) was determined with and without hormonal treatment.
# [2] = system: human skeletal muscle cells (hSkMC2); test: Proliferation of human skeletal muscle cells, batch hSkMC2 (resazurin assay)
# Method: as §1
# (§3) Medium and hormones were replaced on day 1, 4 and 7. Proliferation was measured using the resazurin assay (Stern-Straeter et al., 2008). Statistical analysis of the proliferation data was performed with the Student's t-test.
# [3] = system: human skeletal muscle cells (hSkMC1); test: Proliferation of human skeletal muscle cells, batch hSkMC1 (resazurin assay); conditions: for Effect on proliferation (FIG. 3a, in words): individual compounds and all 4 combinations, combinations P<0.001, except 100 nM nandrolone plus 100 nM P<0.05
# Method: as §1, §3
# [4] = system: vitamin D receptor (VD3R) expression in human skeletal muscle cells (hSkMC2); test: Vitamin D receptor expression by flow cytometry, hSkMC2 cells; conditions: 5 days of treatment, flow cytometry (FIG. 2)
# Method: as §1, §2
SMILES,Effect on vitamin D receptor expression [1],"Percentage increase (% Δ) in proliferation compared to control ([2]; 10 nM dhvit D3, 8 days) [%]","Percentage increase (% Δ) in proliferation compared to control ([2]; 100 nM dhvit D3, 8 days) [%]","Effect on proliferation (FIG. 3b, in words) ([2]; higher concentrations of 1α,25-dihydroxyvitamin D3, 4 combinations vs control P<0.05, except 100 nM nandrolone plus 10 nM P<0.001)","Percentage increase (% Δ) in proliferation compared to control ([3]; 10 nM dhvit D3, 8 days) [%]","Percentage increase (% Δ) in proliferation compared to control ([3]; 100 nM dhvit D3, 8 days) [%]","Effect on proliferation (FIG. 3a, in words) [3]",Change in number of cells with positive vitamin D receptor [4],"Percentage increase (% Δ) in proliferation compared to control ([2]; 100 nM nandrolone, 8 days) [%]","Percentage increase (% Δ) in proliferation compared to control ([2]; 1000 nM nandrolone, 8 days) [%]","Percentage increase (% Δ) in proliferation compared to control ([3]; 100 nM nandrolone, 8 days) [%]","Percentage increase (% Δ) in proliferation compared to control ([3]; 1000 nM nandrolone, 8 days) [%]"
"C=C1/C(=C\C=C2/CCC[C@]3(C)[C@@H]([C@H](C)CCCC(C)(C)O)CC[C@@H]23)C[C@@H](O)C[C@@H]1O [dhvit D3, 1α,25-dihydroxyvitamin D3]",less pronounced,1,8,an increase in proliferation,1,−5,no effect on proliferation,,,,,
C[C@]12CC[C@H]3[C@@H](CCC4=CC(=O)CC[C@@H]43)[C@@H]1CC[C@@H]2O [nandrolone],less pronounced,,,,,,no effect on proliferation,increases,4,1,3,1

# Source: patent US10543217B2, “Method of treating frailty” (Organext Research B.V., priority 2009, dated 2020)
